Results: patent US20230082430A1 (C4 Therapeutics, Inc., priority 2019, published 2023)

Each compound was assayed on NCIH929.1 cells (assay: Cell viability assay for Table 2 (CellTiter-Glo 2.0, ATP quantification, 96 hr)). Details: 96 h, NCIH929.1 cell viability, 96 hr, top concentration 1 μM, 14 points half log titration; read-out: IC50.
Assay type: cell-based
Description: Cell Viability Assay for Table 2
CellTiter-Glo® 2.0 Assay was purchased from Promega (Madison, Wis., USA). NCIH929.1 cell line was purchased from ATCC (Manassas, Va., USA). Cell culture flasks and 384-well microplates were acquired from VWR (Radnor, Pa., USA).
`CC1(n2cc(Cc3ccc4c5c(cccc35)C(=O)N4C3CCC(=O)NC3=O)cn2)CCN(C(=O)C2(C#N)CCC2)CC1` (centres unmarked) [Compound 86, 1-(4-(4-((1-(2,6-dioxopiperidin-3-yl)-2-oxo-1,2-dihydrobenzo[cd]indol-6-yl)methyl)-1H-pyrazol-1-yl)-4-methylpiperidine-1-carbonyl)cyclobutane-1-carbonitrile] showed an IC50 of under 1 nM. Work on `CC12CC(C(=O)N3CCC(C)(n4cc(Cc5ccc6c7c(cccc57)C(=O)N6C5CCC(=O)NC5=O)cn4)CC3)(CCO1)C2` (centres unmarked) [Compound 88, 3-(6-((1-(4-methyl-1-(1-methyl-2-oxabicyclo[3.1.1]heptane-5-carbonyl)piperidin-4-yl)-1H-pyrazol-4-yl)methyl)-2-oxobenzo[cd]indol-1(2H)-yl)piperidine-2,6-dione] yielded an IC50 of under 1 nM. For `CC1(n2cc(Cc3ccc4c5c(cccc35)C(=O)N4C3CCC(=O)NC3=O)cn2)CCN(C(=O)C23CCCC(C2)C3)CC1` (centres unmarked) [Compound 89, 3-(6-((1-(1-(bicyclo[3.1.1]heptane-1-carbonyl)-4-methylpiperidin-4-yl)-1H-pyrazol-4-yl)methyl)-2-oxobenzo[cd]indol-1(2H)-yl)piperidine-2,6-dione], the IC50 was under 1 nM. `CC1(n2cc(Cc3ccc4c5c(cccc35)C(=O)N4C3CCC(=O)NC3=O)cn2)CCN(C(=O)C23CC(CO2)C3)CC1` (centres unmarked) [Compound 90, 3-(6-((1-(1-(2-oxabicyclo[2.1.1]hexane-1-carbonyl)-4-methylpiperidin-4-yl)-1H-pyrazol-4-yl)methyl)-2-oxobenzo[cd]indol-1(2H)-yl)piperidine-2,6-dione] gave an IC50 of under 1 nM. `CC1(n2cc(Cc3ccc4c5c(cccc35)C(=O)N4C3CCC(=O)NC3=O)cn2)CCN(C(=O)C23CC(C2)C3)CC1` (centres unmarked) [Compound 91, 3-(6-((1-(1-(bicyclo[1.1.1]pentane-1-carbonyl)-4-methylpiperidin-4-yl)-1H-pyrazol-4-yl)methyl)-2-oxobenzo[cd]indol-1(2H)-yl)piperidinc-2,6-dione] showed an IC50 of under 1 nM. Compound `CC1(C(=O)N2CCC(C)(n3cc(Cc4ccc5c6c(cccc46)C(=O)N5C4CCC(=O)NC4=O)cn3)CC2)CCC1` (centres unmarked) [Compound 92, 3-(6-((1-(4-methyl-1-(1-methylcyclobutane-1-carbonyl)piperidin-4-yl)-1H-pyrazol-4-yl)methyl)-2-oxobenzo[cd]indol-1(2H)-yl)piperidine-2,6-dione] has an IC50 of under 1 nM. In the case of `CC(C)(C)C(=O)N1CCC(C)(n2cc(Cc3ccc4c5c(cccc35)C(=O)N4C3CCC(=O)NC3=O)cn2)CC1` (centres unmarked) [Compound 93], the IC50 is reported as under 1 nM. In the case of `CC1(C(=O)N2CCC(C)(n3cc(Cc4ccc5c6c(cccc46)C(=O)N5C4CCC(=O)NC4=O)cn3)CC2)COC1` (centres unmarked) [Compound 94, 3-(6-((1-(4-methyl-1-(3-methyloxetane-3-carbonyl)piperidin-4-yl)-1H-pyrazol-4-yl)methyl)-2-oxobenzo[cd]indol-1(2H)-yl)piperidine-2,6-dione], the IC50 is reported as under 1 nM. Work on `CC(C)(CF)C(=O)N1CCC(C)(n2cc(Cc3ccc4c5c(cccc35)C(=O)N4C3CCC(=O)NC3=O)cn2)CC1` (centres unmarked) [Compound 95, 3-(6-((1-(1-(3-fluoro-2,2-dimethylpropanoyl)-4-methylpiperidin-4-yl)-1H-pyrazol-4-yl)methyl)-2-oxobenzo[cd]indol-1(2H)-yl)piperidine-2,6-dione] yielded an IC50 of under 1 nM. `CC(C)(F)C(=O)N1CCC(C)(n2cc(Cc3ccc4c5c(cccc35)C(=O)N4C3CCC(=O)NC3=O)cn2)CC1` (centres unmarked) [Compound 96, 3-(6-((1-(1-(2-fluoro-2-methylpropanoyl)-4-methylpiperidin-4-yl)-1H-pyrazol-4-yl)methyl)-2-oxobenzo[cd]indol-1(2H)-yl)piperidine-2,6-dione] showed an IC50 of under 1 nM. Work on `CC(C)(Cl)C(=O)N1CCC(C)(n2cc(Cc3ccc4c5c(cccc35)C(=O)N4C3CCC(=O)NC3=O)cn2)CC1` (centres unmarked) [Compound 97, 3-(6-((1-(1-(2-chloro-2-methylpropanoyl)-4-methylpiperidin-4-yl)-1H-pyrazol-4-yl)methyl)-2-oxobenzo[cd]indol-1(2H)-yl)piperidine-2,6-dione] yielded an IC50 of under 1 nM. `CC(C)(CO)C(=O)N1CCC(C)(n2cc(Cc3ccc4c5c(cccc35)C(=O)N4C3CCC(=O)NC3=O)cn2)CC1` (centres unmarked) [Compound 98, 3-(6-((1-(1-(3-hydroxy-2,2-dimethylpropanoyl)-4-methylpiperidin-4-yl)-1H-pyrazol-4-yl)methyl)-2-oxobenzo[cd]indol-1(2H)-yl)piperidine-2,6-dione] showed an IC50 of under 1 nM. `CC1(CN2CCC(C)(n3cc(Cc4ccc5c6c(cccc46)C(=O)N5C4CCC(=O)NC4=O)cn3)CC2)CC1` (centres unmarked) [Compound 100, 3-(6-((1-(4-methyl-1-((1-methylcyclopropyl)methyl)piperidin-4-yl)-1H-pyrazol-4-yl)methyl)-2-oxobenzo[cd]indol-1(2H)-yl)piperidine-2,6-dione] was tested, and the IC50 was under 1 nM. `COC1(CN2CCC(C)(n3cc(Cc4ccc5c6c(cccc46)C(=O)N5C4CCC(=O)NC4=O)cn3)CC2)CC1` (centres unmarked) [Compound 101, 3-(6-((1-(1-((1-methoxycyclopropyl)methyl)-4-methylpiperidin-4-yl)-1H-pyrazol-4-yl)methyl)-2-oxobenzo[cd]indol-1(2H)-yl)piperidine-2,6-dione] was tested, and the IC50 was under 1 nM. Work on `CC1(n2cc(Cc3ccc4c5c(cccc35)C(=O)N4C3CCC(=O)NC3=O)cn2)CCN(CC2(C#N)CC2)CC1` (centres unmarked) [Compound 102, 1-((4-(4-((1-(2,6-dioxopiperidin-3-yl)-2-oxo-1,2-dihydrobenzo[cd]indol-6-yl)methyl)-1H-pyrazol-1-yl)-4-methylpiperidin-1-yl)methyl)cyclopropane-1-carbonitrile] yielded an IC50 of under 1 nM. Compound `COC1(CN2CCC(C)(n3cc(Cc4ccc5c6c(cccc46)C(=O)N5C4CCC(=O)NC4=O)cn3)CC2)CCC1` (centres unmarked) [Compound 103, 3-(6-((1-(1-((1-methoxycyclobutyl)methyl)-4-methylpiperidin-4-yl)-1H-pyrazol-4-yl)methyl)-2-oxobenzo[cd]indol-1(2H)-yl)piperidine-2,6-dione] has an IC50 of under 1 nM. For `CC(C)(C)CN1CCC(C)(n2cc(Cc3ccc4c5c(cccc35)C(=O)N4C3CCC(=O)NC3=O)cn2)CC1` (centres unmarked) [Compound 104, 3-(6-((1-(4-methyl-1-neopentylpiperidin-4-yl)-1H-pyrazol-4-yl)methyl)-2-oxobenzo[cd]indol-1(2H)-yl)piperidine-2,6-dione], the IC50 was under 1 nM. Work on `CC1(n2cc(Cc3ccc4c5c(cccc35)C(=O)N4C3CCC(=O)NC3=O)cn2)CCN(CC2(C(F)(F)F)CC2)CC1` (centres unmarked) [Compound 105, 3-(6-((1-(4-methyl-1-((1-(trifluoromethyl)cyclopropyl)methyl)piperidin-4-yl)-1H-pyrazol-4-yl)methyl)-2-oxobenzo[cd]indol-1(2H)-yl)piperidine-2,6-dione] yielded an IC50 of under 1 nM. In the case of `CC1(n2cc(Cc3ccc4c5c(cccc35)C(=O)N4C3CCC(=O)NC3=O)cn2)CCN(CC2(F)CC2)CC1` (centres unmarked) [Compound 106, 3-(6-((1-(1-((1-fluorocyclopropyl)methyl)-4-methylpiperidin-4-yl)-1H-pyrazol-4-yl)methyl)-2-oxobenzo[cd]indol-1(2H)-yl)piperidine-2,6-dione], the IC50 is reported as under 1 nM. With `CC(C)(C)OC(=O)N1CCN(Cc2ccc(Cc3ccc4c5c(cccc35)C(=O)N4C3CCC(=O)NC3=O)cc2)CC1` (centres unmarked) [Compound 107, tert-butyl 4-(4-((1-(2,6-dioxopiperidin-3-yl)-2-oxo-1,2-dihydrobenzo[cd]indol-6-yl)methyl)benzyl)piperazine-1-carboxylate] the IC50 was under 1 nM.
